From US12371404B2, “Fused bicyclic alkylene linked imidodicarbonimidic diamides, methods for synthesis, and uses in therapy” (NovaTarg, Inc., priority 2016, dated 2025) come the findings set out here.

Structures can show the parent of a compound that is named as a salt.

In one test the test system is control (Neo) cells. The test is described as follows: Oxygen consumption rate (OCR) assay, control (Neo) HEK293 cells. The format is cell-based. The note with it: Homo sapiens; control (Neo) HEK293 cells; MitoXpress Xtra, 2 hours; read-out: Oxygen Consumption Rate (OCR) IC50, Neo. The text has this:
(§1) Diabetologia 2011, 54 (12): 3101-3110, each incorporated by reference with regard to such testing. The compounds of the present invention are similarly tested in an oxygen consumption rate (OCR) assay to evaluate the functional activity of test compounds in cells.
(§2) In brief, the assay uses HEK293 cells stably transfected with the human OCT1, OCT2, OCT3, PMAT, or MATE1 transporters to determine a compound's relative transporter selectivity and its effect on the rate of oxygen consumption relative to control (Neo) cells. The MitoXpress Xtra oxygen-sensitive fluorophore is used to monitor oxygen consumption rates in the presence and absence of compound treatments. The analogs were tested at eight (8) different concentrations in triplicate to determine a relative IC50 value.
(§3) A summary description of the protocol is as follows:
(§4) HEK293 cells transformed with human organic cation transporters were plated in collagen coated, 96-well black-walled microclear plates (Greiner-Bio 1, #655956) at 60,000 cells per well in growth medium (DMEM (LG), 10% FBS, 400 μg/ml G418). Cells were incubated overnight to allow attachment. The outer columns (1 and 12) are not seeded with cells, as controls. The next day, plating medium was removed and replaced with 150 μL of assay medium (DMEM/F12 (PRF), 5% FBS, antibiotics) containing compound dilutions. A 3-fold serial dilution was prepared in the assay medium and transferred to the empty wells. The outer columns and column 11 received 150 μL of assay medium only. 10 μL of MitoXpress Xtra reagent was added to each test well, and 100 μL of pre-warmed mineral oil was overlayed in each well to create a seal. Dual read time-resolved fluorescence (BMG FluoStar Galaxy reader) was measured over 2 hours with measurements taken every 2 minutes. Excitation is 340 nm, Emission is 650 nm. For lifetime analysis, two measurements per well were taken: 1) delay of 30 μs, with a window of 30 μs; and 2) delay of 70 μs with a window of 30 μs. Background TRF values from A1-D1 were subtracted from all readings. A ratiometric analysis was performed to determine changes in the Lifetime fluorescence signal:Lifetime (μs) [T]=(D2−D1)/ln(W1/W2), where D is delay; W is fluorescence window value at each time point. Lifetime slopes were calculated using each Lifetime measurement over time. IC50 values were determined by plotting lifetime slope values vs. compound concentration.

In a further test the target is T1, human MATE1 (Homo sapiens, UniProt Q96FL8).
T1 sequence (Q96FL8 1-570): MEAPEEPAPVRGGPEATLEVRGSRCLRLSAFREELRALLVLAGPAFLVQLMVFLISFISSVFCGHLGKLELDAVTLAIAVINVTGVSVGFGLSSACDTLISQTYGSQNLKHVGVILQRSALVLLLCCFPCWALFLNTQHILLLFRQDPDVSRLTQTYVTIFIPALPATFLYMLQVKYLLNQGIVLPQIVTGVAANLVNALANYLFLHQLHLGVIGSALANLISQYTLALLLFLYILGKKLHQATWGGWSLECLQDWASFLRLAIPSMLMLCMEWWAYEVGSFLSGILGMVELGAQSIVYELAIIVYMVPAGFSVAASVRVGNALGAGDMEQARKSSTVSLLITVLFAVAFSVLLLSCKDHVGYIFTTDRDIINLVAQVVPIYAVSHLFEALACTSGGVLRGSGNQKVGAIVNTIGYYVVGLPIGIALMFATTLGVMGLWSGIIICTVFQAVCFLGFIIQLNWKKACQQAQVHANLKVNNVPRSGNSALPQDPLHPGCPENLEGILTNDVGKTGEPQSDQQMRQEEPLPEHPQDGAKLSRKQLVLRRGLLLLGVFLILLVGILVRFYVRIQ
Kind of test: Oxygen consumption rate (OCR) assay, HEK293 cells transfected with MATE1. The note with it: for inhibition at 1000 µM: HEK293, read-out: Oxygen Consumption Rate (OCR), MATE 1, % Inhibition at 1000 μM test concentration.
From the text: The compounds of the present invention are similarly tested in an oxygen consumption rate (OCR) assay to evaluate the functional activity of test compounds in cells.
as §2, §3
as §4, with “Cells” for “HEK293 cells transformed with human organic cation transporters were plated in collagen coated, 96-well black-walled microclear plates (Greiner-Bio 1, #655956) at 60,000 cells per well in growth medium (DMEM (LG), 10% FBS, 400 μg/ml G418). Cells”

Another test has as its target T2, human PMAT (Homo sapiens, UniProt Q7RTT9).
T2 construct: expressed in transfected cells; host or cells: HEK293
T2 sequence (Q7RTT9 1-530): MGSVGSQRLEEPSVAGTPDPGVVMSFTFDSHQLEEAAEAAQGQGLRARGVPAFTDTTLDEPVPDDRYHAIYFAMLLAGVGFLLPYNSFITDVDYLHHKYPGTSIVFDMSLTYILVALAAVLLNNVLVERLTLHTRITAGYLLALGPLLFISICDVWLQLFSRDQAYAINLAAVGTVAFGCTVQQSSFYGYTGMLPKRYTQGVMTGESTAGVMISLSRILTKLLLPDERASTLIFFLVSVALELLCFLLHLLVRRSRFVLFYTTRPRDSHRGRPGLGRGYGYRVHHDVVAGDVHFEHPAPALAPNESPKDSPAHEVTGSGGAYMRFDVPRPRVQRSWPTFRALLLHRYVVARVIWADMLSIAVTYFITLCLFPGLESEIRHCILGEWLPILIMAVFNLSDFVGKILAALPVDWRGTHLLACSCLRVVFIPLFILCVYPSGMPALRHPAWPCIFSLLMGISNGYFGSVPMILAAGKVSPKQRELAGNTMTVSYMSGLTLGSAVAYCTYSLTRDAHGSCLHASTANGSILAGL
Kind of test: Oxygen consumption rate (OCR) assay, HEK293 cells transfected with PMAT. The format is cell-based. The note with it: for inhibition at 10 µM: HEK293 cells with human PMAT.
From the text: as §1, §2, §3, §4

For `N=C(N)NC(=N)NCCc1c[nH]c2c(Cl)cccc12` [Ex 36, 1-[2-(7-chloro-1H-indol-3-yl)ethyl]imidodicarbonimide diamide, trifluoroacetic acid salt], the figures for the IC50 with control (Neo) cells and against human MATE1 were 409 µM and 26 µM, respectively. Further, at human PMAT, the inhibition at 10 µM stood at 55%.

`N=C(N)NC(=N)NCCc1c[nH]c2nc(F)ccc12` [Ex 45, 1-(2-(6-fluoro-1H-pyrrolo[2,3-b]pyridin-3-yl)ethyl)imidodicarbonimide diamide, trifluoroacetic acid salt]: the IC50 (commonly the concentration that gives 50% inhibition) in the test on control (Neo) cells was 11400 µM; on human MATE1 it was greater than 3000 µM; at human PMAT (HEK293 cells stably transfected with human PMAT, MitoXpress Xtra, 2 hours, read-out: Oxygen Consumption Rate (OCR) IC50, PMAT), 14 µM.

Consider `N=C(N)NC(=N)NCCc1c[nH]c2cccnc12` [Ex 21, 1-(2-(1H-pyrrolo[3,2-b]pyridin-3-yl)ethyl)imidodicarbonimide diamide acetate], for which the IC50 in the test with control (Neo) cells is greater than 3000 µM; against human MATE1, 1540 µM. The inhibition at 10 µM against human PMAT stood at 27%.

Consider `Cc1c(CCNC(=N)NC(=N)N)c2ccccc2n1C` [Ex 16, 1-[2-(1,2-dimethyl-1H-indol-3-yl)ethyl]imidodicarbonimide diamide], for which, in the test on control (Neo) cells, the IC50 was 1210 µM. On human MATE1, the inhibition at 1000 µM was determined as 10%. Further, at human PMAT, the inhibition at 10 µM came out at 36%.

`N=C(N)NC(=N)NCCc1c[nH]c2cc(Cl)c(F)cc12` [Ex 48, 1-[2-(6-chloro-5-fluoro-1H-indol-3-yl)ethyl]imidodicarbonimide diamide, trifluoroacetic acid salt]: the concentration for half-maximal inhibition (IC50) in the test with control (Neo) cells stood at 210 µM; at human MATE1, 101 µM. In addition, the inhibition at 10 µM against human PMAT was 61%.

With `N=C(N)NC(=N)NCCc1c[nH]c2ccncc12` [Ex 22, 1-(2-(1H-pyrrolo[3,2-c]pyridin-3-yl)ethyl)imidodicarbonimide diamide hydrochloride], the IC50 in the test with control (Neo) cells was 3240 µM; at human MATE1, 2980 µM. In addition, on human PMAT, the inhibition at 10 µM is -7%.

With `Cc1ccc2[nH]cc(CCNC(=N)NC(=N)N)c2c1` [Ex 10, 1-[2-(5-methyl-1H-indol-3-yl)ethyl]imidodicarbonimide diamide trifluoroacetic acid salt], the IC50 with control (Neo) cells came to 439 µM; on human MATE1, 2190 µM. The inhibition at 10 µM at human PMAT stood at 43%.

Consider `N=C(N)NC(=N)NCCc1c[nH]c2cc(Cl)ccc12` [Ex 35, 1-[2-(6-chloro-1H-indol-3-yl)ethyl]imidodicarbonimide diamide, trifluoroacetic acid salt], for which the IC50 amounted to 205 µM with control (Neo) cells and 20 µM at human MATE1. Also, the inhibition at 10 µM at human PMAT came out at 68%.

Regarding `N=C(N)NC(=N)NCCc1c[nH]c2ccc(Cl)c(F)c12` [Ex 49, 1-[2-(5-chloro-4-fluoro-1H-indol-3-yl)ethyl]imidodicarbonimide diamide, trifluoroacetic acid salt], the IC50 came to 155 µM with control (Neo) cells and 64 µM on human MATE1.

On to `Cn1cc(CCNC(=N)NC(=N)N)c2cccnc21` [Ex 39, 1-(2-(1-methyl-1H-pyrrolo[2,3-b]pyridin-3-yl)ethyl)imidodicarbonimide diamide, trifluoroacetic acid salt], for which the IC50 in the test with control (Neo) cells is 205 µM; on human MATE1, 168 µM.

`CCOc1ccc2[nH]cc(CCNC(=N)NC(=N)N)c2c1` [Ex 12, 1-[2-(5-ethoxy-1H-indol-3-yl)ethyl]imidodicarbonimide diamide trifluoroacetic acid salt]: the IC50 in the test on control (Neo) cells is 1150 µM. In addition, on human MATE1, the inhibition at 1000 µM was -8%.

For `COc1ccc2[nH]c(C)c(CCNC(=N)NC(=N)N)c2c1` [Ex 19, 1-[2-(5-methoxy-2-methyl-1H-indol-3-yl)ethyl]imidodicarbonimide diamide, trifluoroacetic acid salt], the IC50 in the test on control (Neo) cells is greater than 3000 µM. The inhibition at 1000 µM on human MATE1 stood at 14%.

`Cn1cc(CCNC(=N)NC(=N)N)c2ccc(F)cc21` [Ex 52, 1-[2-(6-fluoro-1-methyl-1H-indol-3-yl)ethyl]imidodicarbonimide diamide, trifluoroacetic acid salt]: the IC50 was 388 µM with control (Neo) cells and 32 µM against human MATE1.

`CN(C)C(=N)NC(=N)NCCc1c[nH]c2ccc(OC(F)(F)F)cc12` [Ex 33, 3-(2-(5-trifluoromethoxy-1H-indol-3-yl)ethyl)-1,1-dimethyl imidodicarbonimide diamide hydrochloride]: the values for the IC50 in the test on control (Neo) cells and against human MATE1 were 156 µM and 218 µM, respectively.

On to `CC(C)(CNC(=N)NC(=N)N)c1c[nH]c2cc(F)ccc12` [Ex 63, 1-[2-(6-fluoro-1H-indol-3-yl)-2-methylpropyl]imidodicarbonimide diamide, trifluoroacetic acid salt], for which the IC50 amounted to 1750 µM with control (Neo) cells and 3790 µM on human MATE1.

With `CN(CCc1c[nH]c2cc(F)ccc12)C(=N)NC(=N)N` [Ex 65, 1-methyl-1-[2-(6-fluoro-1H-indol-3-yl)ethyl]imidodicarbonimide diamide, trifluoroacetic acid salt], the half-inhibitory concentration (IC50) came out at 8410 µM with control (Neo) cells and 354 µM on human MATE1.

In the case of `Cc1cccc2[nH]cc(CCNC(=N)NC(=N)N)c12` [Ex 60, 1-[2-(4-methyl-1H-indol-3-yl)ethyl]imidodicarbonimide diamide, trifluoroacetic acid salt], the IC50 is 1640 µM in the test on control (Neo) cells and 636 µM at human MATE1.

`N=C(N)NC(=N)NCCc1c[nH]c2cc(F)c(Cl)cc12` [Ex 58, 1-[2-(5-chloro-6-fluoro-1H-indol-3-yl)ethyl]imidodicarbonimide diamide, trifluoroacetic acid salt]: the IC50 turned out to be 191 µM in the test with control (Neo) cells and 35 µM against human MATE1.
